Laboratory results as given in patent publication US4593093A, “Acyl derivatives” (priority 1980, dated 1986).
Structures can show the parent of a compound that is named as a salt. Where two headings read alike, the source gives them in different places.

How the values were obtained:
Toxicity, LD50 = conditions: in vivo
Proteus mirabilis = assay: Activity in vitro: minimum inhibitory concentration; format: cell-based
Pseudomonas aeruginosa [1] = assay: Activity in vivo: survival of intraperitoneally infected mice; conditions: sc, 96 h; mice infected i.p. with Pseudomonas aeruginosa; s.c. three times, 1 h, 3 h and 5 h after infection; survival on 4th day; read-out: CD50 (dosage at which 50% of the animals survive)
Protocol: (§1) Groups of 5 mice are infected intraperitoneally with an aqueous suspension of various pathogens. The test substance in physiological sodium chloride solution is administered subcutaneously twice, i.e. 1 hour and 3 hours after the infection. The number of surviving animals is determined on the 4th day. Various dosages are administered and that dosage at which 50% of the experimental animals survive (CD50, mg/kg) is determined by interpolation.
*Administered subcutaneously three times: 1 hour, 3 hours and 5 hours

Escherichia coli [2] = assay: Activity in vitro: minimum inhibitory concentration; format: cell-based
Streptococcus viridans = assay: as above; format: cell-based
Serratia marcescens [3] = assay: as above; format: cell-based
Pseudomonas aeruginosa [4] = assay: as above; format: cell-based
Enterobacter cloacae [5] = assay: as above; format: cell-based
Streptococcus faecalis = assay: as above; format: cell-based; conditions: Enterococcus faecalis
Streptococcus pyogenes [6] = assay: as above; format: cell-based
Streptococcus pneumoniae = assay: as above; format: cell-based
Proteus inconstans = assay: as above; format: cell-based; conditions: Providencia alcalifaciens
Enterobacter aerogenes = assay: as above; format: cell-based; conditions: Klebsiella aerogenes
Staphylococcus aureus = assay: as above; format: cell-based
Staphylococcus epidermis = assay: as above; format: cell-based
Klebsiella pseumoniae = assay: as above; format: cell-based
Proteus morganii = assay: as above; format: cell-based; conditions: Morganella morganii
Proteus rettgeri = assay: as above; format: cell-based; conditions: Providencia rettgeri
Streptococcus pyogenes [7] = assay: Activity in vivo: survival of intraperitoneally infected mice; conditions: sc, 96 h; mice infected i.p. with Streptococcus pyogenes; s.c. twice, 1 h and 3 h after infection; survival on 4th day; read-out: CD50 (dosage at which 50% of the animals survive)
Protocol: as §1

Haemophilus influenzae = assay: as above; conditions: sc, 96 h; mice infected i.p. with Haemophilus influenzae; s.c. twice, 1 h and 3 h after infection; survival on 4th day; read-out: CD50 (dosage at which 50% of the animals survive)
Protocol: as §1

Escherichia coli [8] = assay: as above; conditions: sc, 96 h; mice infected i.p. with Escherichia coli; s.c. twice, 1 h and 3 h after infection; survival on 4th day; read-out: CD50 (dosage at which 50% of the animals survive)
Protocol: as §1

Enterobacter cloacae [9] = assay: as above; conditions: sc, 96 h; mice infected i.p. with Enterobacter cloacae; s.c. twice, 1 h and 3 h after infection; survival on 4th day; read-out: CD50 (dosage at which 50% of the animals survive)
Protocol: as §1

Serratia marcescens [10] = assay: as above; conditions: sc, 96 h, mice infected i.p. with Serratia marcescens strain 1, s.c. twice, 1 h and 3 h after infection, survival on 4th day, read-out: CD50 (dosage at which 50% of the animals survive)
Protocol: as §1

Citrobacter freundii = assay: Activity in vitro: minimum inhibitory concentration; format: cell-based
[11] = Pseudomonas aeruginosa strain 3
[12] = Streptococcus faecalis strain 1
[13] = Streptococcus faecalis strain 2
[14] = Streptococcus pyogenes strain 1, read-out: Minimum inhibitory concentration
[15] = Enterobacter aerogenes strain 1
[16] = Enterobacter aerogenes strain 2

With CO/N=C(\C(=O)N[C@@H]1C(=O)N2C(C(=O)[O-])=C(CSc3n[nH]c(=O)c(=O)n3C)CS[C@H]12)c1c[se]c(N)n1.[Na+] [Product G, (6R, 7R)-7-[2-(2-amino-4-selenazolyl)-2-[(Z)-methoxyimino]-acetamido]-8-oxo-3-[[(1,4,5,6-tetrahydro-4-methyl-5,6-dioxo-as-triazin-3-yl)thio]methyl]-5-thia-1-azabicyclo[4.2.0]oct-2-ene-2-carboxylic acid sodium salt] the LD50 (Toxicity, LD50; po) was over 5000 mg/kg, the LD50 (Toxicity, LD50; sc) was over 4000 mg/kg and the MIC (Proteus mirabilis; Proteus mirabilis strain 3) was 0.4 µg/mL. It also gave an MIC (Proteus mirabilis; Proteus mirabilis strain 4) of 0.025 µg/mL, an MIC (Proteus mirabilis; Proteus mirabilis strain 5) of 0.025 µg/mL and an ED50 (Pseudomonas aeruginosa [1]) of over 200 mg/kg. It also gave an MIC (Escherichia coli [2]; Escherichia coli strain 1) of 0.05 µg/mL, an MIC (Escherichia coli [2]; Escherichia coli strain 2) of 0.012 µg/mL and an MIC (Escherichia coli [2]; Escherichia coli strain 3) of 0.2 µg/mL. It also gave an MIC (Escherichia coli [2]; Escherichia coli strain 4) of 0.2 µg/mL, an MIC (Escherichia coli [2]; Escherichia coli strain 5) of 0.2 µg/mL and an MIC (Streptococcus viridans) of 0.8 µg/mL. The MIC (Serratia marcescens [3]; Serratia marcescens strain 1) was 0.2 µg/mL, the MIC (Serratia marcescens [3]; Serratia marcescens strain 2) was 0.4 µg/mL and the MIC (Serratia marcescens [3]; Serratia marcescens strain 3) was 0.1 µg/mL. The MIC (Pseudomonas aeruginosa [4]; Pseudomonas aeruginosa strain 1) was 50 µg/mL, the MIC (Pseudomonas aeruginosa [4]; Pseudomonas aeruginosa strain 2) was 50 µg/mL and the MIC (Pseudomonas aeruginosa [4]; [11]) was 25 µg/mL. For the same molecule, the MIC (Enterobacter cloacae [5]; Enterobacter cloacae strain 1) was over 100 µg/mL, the MIC (Enterobacter cloacae [5]; Enterobacter cloacae strain 2) was 0.8 µg/mL and the MIC (Enterobacter cloacae [5]; Enterobacter cloacae strain 3) was 50 µg/mL. For the same molecule, the MIC (Streptococcus faecalis; [12]) was 25 µg/mL, the MIC (Streptococcus faecalis; [13]) was 50 µg/mL and the MIC (Streptococcus pyogenes [6]; [14]) was 0.05 µg/mL. The MIC (Streptococcus pneumoniae) was 0.1 µg/mL, the MIC (Proteus inconstans) was 0.006 µg/mL and the MIC (Enterobacter aerogenes; [15]) was 0.1 µg/mL. It also gave an MIC (Enterobacter aerogenes; [16]) of 0.1 µg/mL, an MIC (Staphylococcus aureus; Staphylococcus aureus strain 1) of 0.4 µg/mL and an MIC (Staphylococcus aureus; Staphylococcus aureus strain 2) of 1.6 µg/mL. For the same molecule, the MIC (Staphylococcus aureus; Staphylococcus aureus strain 3) was 0.8 µg/mL, the MIC (Staphylococcus aureus; Staphylococcus aureus strain 4) was 0.8 µg/mL and the MIC (Staphylococcus epidermis) was 0.8 µg/mL. For the same molecule, the MIC (Klebsiella pseumoniae; Klebsiella pseumoniae strain 1) was 0.1 µg/mL, the MIC (Klebsiella pseumoniae; Klebsiella pseumoniae strain 2) was 0.025 µg/mL and the MIC (Klebsiella pseumoniae; Klebsiella pseumoniae strain 3) was 0.05 µg/mL. For the same molecule, the MIC (Proteus morganii) was 0.05 µg/mL, the MIC (Proteus rettgeri) was 0.05 µg/mL and the ED50 (Streptococcus pyogenes [7]) was 0.02 mg/kg. It also gave an ED50 (Haemophilus influenzae) of 0.25 mg/kg, an ED50 (Escherichia coli [8]) of under 3 µg/kg and an ED50 (Enterobacter cloacae [9]) of 9.2 mg/kg. It also gave an ED50 (Serratia marcescens [10]) of 0.2 mg/kg, an MIC (Citrobacter freundii; Citrobacter freundii strain 1) of 1.6 µg/mL and an MIC (Citrobacter freundii; Citrobacter freundii strain 2) of 0.1 µg/mL.

Molecule CC(C)(O/N=C(\C(=O)N[C@@H]1C(=O)N2C(C(=O)[O-])=C(C[n+]3ccccc3)CS[C@H]12)c1c[se]c(N)n1)C(=O)O [Product K, 1-[[(6R, 7R)-7-[(Z)-2-(2-amino-4-selenazolyl)-2-[(1-carboxy-1-methylethoxy)imino]acetamido]-2-carboxy-8-oxo-5-thia-1-azabicyclo[4.2.0]oct-2-en-3-yl]methyl]pyridinium hydroxide sodium salt (internal salt)] has an MIC (Proteus mirabilis; Proteus mirabilis strain 3) of 0.4 µg/mL, an MIC (Proteus mirabilis; Proteus mirabilis strain 4) of 0.1 µg/mL and an MIC (Proteus mirabilis; Proteus mirabilis strain 5) of 0.05 µg/mL. The ED50 (Pseudomonas aeruginosa [1]) was 1.1 mg/kg, the MIC (Escherichia coli [2]; Escherichia coli strain 1) was 0.4 µg/mL and the MIC (Escherichia coli [2]; Escherichia coli strain 2) was 0.1 µg/mL. For the same molecule, the MIC (Escherichia coli [2]; Escherichia coli strain 3) was 0.8 µg/mL, the MIC (Escherichia coli [2]; Escherichia coli strain 4) was 25 µg/mL and the MIC (Escherichia coli [2]; Escherichia coli strain 5) was 0.4 µg/mL. The MIC (Streptococcus viridans) was 3.1 µg/mL, the MIC (Serratia marcescens [3]; Serratia marcescens strain 1) was 0.8 µg/mL and the MIC (Serratia marcescens [3]; Serratia marcescens strain 2) was 0.8 µg/mL. It also gave an MIC (Serratia marcescens [3]; Serratia marcescens strain 3) of 0.1 µg/mL, an MIC (Pseudomonas aeruginosa [4]; [11]) of 1.6 µg/mL and an MIC (Enterobacter cloacae [5]; Enterobacter cloacae strain 1) of over 100 µg/mL. For the same molecule, the MIC (Enterobacter cloacae [5]; Enterobacter cloacae strain 2) was 1.6 µg/mL, the MIC (Enterobacter cloacae [5]; Enterobacter cloacae strain 3) was 100 µg/mL and the MIC (Streptococcus faecalis; [12]) was over 100 µg/mL. The MIC (Streptococcus faecalis; [13]) was over 100 µg/mL, the MIC (Streptococcus pyogenes [6]; [14]) was 0.4 µg/mL and the MIC (Streptococcus pyogenes [6]; read-out: Minimum inhibitory concentration, Streptococcus pyogenes strain 2) was 0.1 µg/mL. It also gave an MIC (Streptococcus pneumoniae) of 0.1 µg/mL, an MIC (Proteus inconstans) of 0.05 µg/mL and an MIC (Enterobacter aerogenes; [15]) of 0.4 µg/mL. It also gave an MIC (Enterobacter aerogenes; [16]) of 0.2 µg/mL, an MIC (Staphylococcus aureus; Staphylococcus aureus strain 1) of 12.5 µg/mL and an MIC (Staphylococcus aureus; Staphylococcus aureus strain 2) of 50 µg/mL. For the same molecule, the MIC (Staphylococcus aureus; Staphylococcus aureus strain 3) was 12.5 µg/mL, the MIC (Staphylococcus aureus; Staphylococcus aureus strain 4) was 12.5 µg/mL and the MIC (Staphylococcus epidermis) was 12.5 µg/mL. For the same molecule, the MIC (Klebsiella pseumoniae; Klebsiella pseumoniae strain 1) was 0.8 µg/mL, the MIC (Klebsiella pseumoniae; Klebsiella pseumoniae strain 2) was 0.2 µg/mL and the MIC (Klebsiella pseumoniae; Klebsiella pseumoniae strain 3) was 0.8 µg/mL. For the same molecule, the MIC (Proteus morganii) was 0.2 µg/mL, the ED50 (Streptococcus pyogenes [7]) was 0.28 mg/kg and the ED50 (Serratia marcescens [10]) was 0.11 mg/kg. For the same molecule, the MIC (Citrobacter freundii; Citrobacter freundii strain 1) was 12.5 µg/mL and the MIC (Citrobacter freundii; Citrobacter freundii strain 2) was 0.4 µg/mL.
